Results: the NIST ThermoML archive (doi:10.1016/j.jct.2006.09.012)
“And” between values parts separate entries of the source, which are not always exact repeats. Identical values can stand only once. Numbers after ± are expanded uncertainties.

Details: Gas, Buoyancy - hydrostatic balance with magnetic suspension - two sinkers

N#N [nitrogen]
Details | mass density
250 K, 4032 kPa | 55.8107 ± 0.04 kg/m3 [middle of 5 runs]
250 K, 7922 kPa | 111.201 ± 0.16 kg/m3
250 K, 7922.1 kPa | 111.201 ± 0.16 kg/m3
250 K, 11944 kPa | 167.531 ± 0.35 kg/m3 and 167.53 ± 0.35 kg/m3
250 K, 15945 kPa | 220.078 ± 0.59 kg/m3 and 220.076 ± 0.59 kg/m3
250 K, 15946 kPa | 220.079 ± 0.59 kg/m3
250 K, 19672 kPa | 264.436 ± 0.85 kg/m3 [middle of 5 runs]
250 K, 23918 kPa | 309.033 ± 1.2 kg/m3 and 309.035 ± 1.2 kg/m3 and 309.038 ± 1.2 kg/m3
250 K, 23919 kPa | 309.043 ± 1.2 kg/m3
250 K, 23920 kPa | 309.056 ± 1.2 kg/m3
250 K, 23921 kPa | 309.062 ± 1.2 kg/m3
250 K, 27922 kPa | 345.621 ± 1.4 kg/m3 [middle of 4 runs]
250 K, 27923 kPa | 345.629 ± 1.4 kg/m3 and 345.627 ± 1.4 kg/m3
250 K, 31914 kPa | 377.498 ± 1.7 kg/m3 and 377.5 ± 1.7 kg/m3
250 K, 31915 kPa | 377.505 ± 1.7 kg/m3 and 377.504 ± 1.7 kg/m3
250 K, 31916 kPa | 377.516 ± 1.7 kg/m3 and 377.513 ± 1.7 kg/m3
273.16 K, 3969.2 kPa | 49.6242 ± 0.033 kg/m3 [middle of 4 runs]
273.16 K, 3969.3 kPa | 49.6242 ± 0.033 kg/m3
273.16 K, 6172.5 kPa | 77.4431 ± 0.076 kg/m3 and 77.4438 ± 0.076 kg/m3 and 77.4433 ± 0.076 kg/m3
273.16 K, 6172.6 kPa | 77.4441 ± 0.076 kg/m3 and 77.4442 ± 0.076 kg/m3
273.16 K, 8165.1 kPa | 102.478 ± 0.14 kg/m3 and 102.48 ± 0.14 kg/m3
273.16 K, 8165.2 kPa | 102.48 ± 0.14 kg/m3 and 102.479 ± 0.14 kg/m3
273.16 K, 12168 kPa | 151.567 ± 0.29 kg/m3 [middle of 5 runs]
273.16 K, 16376 kPa | 200.13 ± 0.5 kg/m3 [middle of 5 runs]
273.16 K, 20308 kPa | 241.736 ± 0.72 kg/m3 and 241.739 ± 0.72 kg/m3
273.16 K, 20309 kPa | 241.746 ± 0.72 kg/m3 and 241.745 ± 0.72 kg/m3 and 241.743 ± 0.72 kg/m3
273.16 K, 24524 kPa | 281.91 ± 0.98 kg/m3
273.16 K, 24525 kPa | 281.913 ± 0.98 kg/m3 and 281.915 ± 0.98 kg/m3
273.16 K, 24526 kPa | 281.922 ± 0.98 kg/m3 and 281.921 ± 0.98 kg/m3
273.16 K, 28792 kPa | 318.055 ± 1.2 kg/m3
273.16 K, 28793 kPa | 318.057 ± 1.2 kg/m3 and 318.058 ± 1.2 kg/m3
273.16 K, 28794 kPa | 318.067 ± 1.2 kg/m3 and 318.065 ± 1.2 kg/m3
273.16 K, 33963 kPa | 356.391 ± 1.6 kg/m3
273.16 K, 33964 kPa | 356.402 ± 1.6 kg/m3 and 356.397 ± 1.6 kg/m3
273.16 K, 33965 kPa | 356.407 ± 1.6 kg/m3
273.16 K, 33966 kPa | 356.413 ± 1.6 kg/m3
293.14 K, 99.9 kPa | 1.1487 ± 0.0034 kg/m3 [middle of 4 runs]
293.14 K, 199.8 kPa | 2.2978 ± 0.0035 kg/m3 and 2.2977 ± 0.0035 kg/m3 and 2.2976 ± 0.0035 kg/m3
293.14 K, 299.7 kPa | 3.447 ± 0.0036 kg/m3 and 3.4472 ± 0.0036 kg/m3 and 3.4473 ± 0.0036 kg/m3
293.14 K, 499.5 kPa | 5.7475 ± 0.0038 kg/m3 and 5.7477 ± 0.0038 kg/m3 and 5.7476 ± 0.0038 kg/m3
293.14 K, 749.2 kPa | 8.6261 ± 0.004 kg/m3 and 8.626 ± 0.004 kg/m3
293.14 K, 749.3 kPa | 8.6261 ± 0.004 kg/m3
293.14 K, 999 kPa | 11.5072 ± 0.0045 kg/m3 [middle of 5 runs]
293.14 K, 1498.5 kPa | 17.2762 ± 0.011 kg/m3 [middle of 6 runs]
293.14 K, 1998 kPa | 23.0541 ± 0.012 kg/m3 and 23.0539 ± 0.012 kg/m3
293.14 K, 2997.1 kPa | 34.6233 ± 0.019 kg/m3 and 34.6235 ± 0.019 kg/m3 and 34.6236 ± 0.019 kg/m3
293.14 K, 3996.1 kPa | 46.1976 ± 0.029 kg/m3 [middle of 5 runs]
293.14 K, 4995.1 kPa | 57.7592 ± 0.044 kg/m3
293.14 K, 4995.2 kPa | 57.7597 ± 0.044 kg/m3 and 57.7599 ± 0.044 kg/m3
293.14 K, 5994.2 kPa | 69.2908 ± 0.063 kg/m3 and 69.291 ± 0.063 kg/m3 and 69.2909 ± 0.063 kg/m3
293.14 K, 5994.3 kPa | 69.2914 ± 0.063 kg/m3 and 69.2915 ± 0.063 kg/m3
293.15 K, 4004.8 kPa | 46.2934 ± 0.03 kg/m3 [middle of 6 runs]
293.15 K, 4004.9 kPa | 46.2937 ± 0.03 kg/m3
293.15 K, 5964.9 kPa | 68.9512 ± 0.062 kg/m3 [middle of 5 runs]
293.15 K, 7948.6 kPa | 91.6869 ± 0.12 kg/m3 [middle of 4 runs]
293.15 K, 7948.8 kPa | 91.689 ± 0.12 kg/m3 and 91.6881 ± 0.12 kg/m3
293.15 K, 11980 kPa | 136.716 ± 0.24 kg/m3 [middle of 7 runs]
293.15 K, 15954 kPa | 178.78 ± 0.41 kg/m3
293.15 K, 15955 kPa | 178.782 ± 0.41 kg/m3 [middle of 7 runs]
293.15 K, 19567 kPa | 214.452 ± 0.58 kg/m3 and 214.453 ± 0.58 kg/m3
293.15 K, 19568 kPa | 214.457 ± 0.58 kg/m3
293.15 K, 24175 kPa | 256.042 ± 0.83 kg/m3
293.15 K, 24176 kPa | 256.052 ± 0.83 kg/m3 [middle of 4 runs]
293.15 K, 28412 kPa | 290.447 ± 1.1 kg/m3 [middle of 4 runs]
293.15 K, 28413 kPa | 290.455 ± 1.1 kg/m3 and 290.453 ± 1.1 kg/m3
293.15 K, 32144 kPa | 317.902 ± 1.3 kg/m3
293.15 K, 32145 kPa | 317.909 ± 1.3 kg/m3 and 317.905 ± 1.3 kg/m3
293.15 K, 32146 kPa | 317.912 ± 1.3 kg/m3
293.15 K, 32147 kPa | 317.922 ± 1.3 kg/m3 and 317.917 ± 1.3 kg/m3
293.15 K, 32148 kPa | 317.926 ± 1.3 kg/m3
320 K, 4775.8 kPa | 50.1489 ± 0.035 kg/m3 and 50.1482 ± 0.035 kg/m3 and 50.1481 ± 0.035 kg/m3
320 K, 4775.9 kPa | 50.1492 ± 0.035 kg/m3 and 50.1493 ± 0.035 kg/m3 and 50.149 ± 0.035 kg/m3
320 K, 10135 kPa | 104.999 ± 0.15 kg/m3 and 105.001 ± 0.15 kg/m3 and 105.002 ± 0.15 kg/m3
320 K, 20210 kPa | 198.799 ± 0.51 kg/m3 [middle of 6 runs]
339.98 K, 499.5 kPa | 4.9482 ± 0.0035 kg/m3 and 4.9481 ± 0.0035 kg/m3 and 4.948 ± 0.0035 kg/m3
339.98 K, 999 kPa | 9.8915 ± 0.004 kg/m3 and 9.8916 ± 0.004 kg/m3
339.98 K, 1998 kPa | 19.7585 ± 0.011 kg/m3 and 19.7583 ± 0.011 kg/m3 and 19.7584 ± 0.011 kg/m3
339.98 K, 3996 kPa | 39.3819 ± 0.023 kg/m3 [middle of 4 runs]
339.98 K, 5994.1 kPa | 58.7959 ± 0.048 kg/m3 and 58.796 ± 0.048 kg/m3
339.99 K, 5081.9 kPa | 49.9596 ± 0.035 kg/m3
339.99 K, 5082 kPa | 49.9602 ± 0.035 kg/m3 and 49.9596 ± 0.035 kg/m3
339.99 K, 5082.1 kPa | 49.9616 ± 0.035 kg/m3
339.99 K, 21784 kPa | 198.014 ± 0.52 kg/m3
340 K, 5082 kPa | 49.96 ± 0.035 kg/m3
340 K, 10840 kPa | 104.588 ± 0.15 kg/m3 and 104.589 ± 0.15 kg/m3
340 K, 21784 kPa | 198.008 ± 0.52 kg/m3 [middle of 5 runs]
340.01 K, 3874.6 kPa | 38.1897 ± 0.022 kg/m3 [middle of 6 runs]
340.01 K, 5932.3 kPa | 58.1965 ± 0.047 kg/m3 and 58.1955 ± 0.047 kg/m3
340.01 K, 5932.4 kPa | 58.1962 ± 0.047 kg/m3
340.01 K, 7789.6 kPa | 75.9992 ± 0.09 kg/m3
340.01 K, 7789.7 kPa | 76.0004 ± 0.09 kg/m3 [middle of 5 runs]
